The source of these data is article PMC8750417, “Intracellular Amplifiers of Reactive Oxygen Species Affecting Mitochondria as Radiosensitizers” (Cancers, 2021).

Data set [1] can be described thus: n-octanol/water partition coefficient (logP) by RP-TLC. As to conditions: for logP (Hydrolyzed Prodrug): n-octanol/water partition coefficient of the hydrolyzed boronic acid (_BA) form of the prodrug named; for logP (Prodrug): n-octanol/water partition coefficient of the intact prodrug (or control 2c_c), RP-TLC, MOPS pH 7.4. It counts as physicochemical. Here is the method: Determination of n-octanol/water partition coefficients (LogP) […]
mixture of dichloromethane/CH3OH at proper concentrations. Commercially available […]
7.4) (6/4, v/v) was used. The solvent migration distance was around 4.5 cm. The plates […]
and its distance was manually measured. All measurements were done in at least triplicate and average values were used in further calculations. All experiments were performed at ambient temperature (22 ± 2 °C). […]

Data set [2] in a line: Solubility in RPMI 1640 medium, precipitation seen by bright field optical microscopy. As to conditions: DMSO 1%; for Solubility: 48 h incubation in RPMI 1640, FBS 5%, first signs of precipitation; for first signs of precipitation: immediately after dilution in RPMI 1640, FBS 5%. Here is the method:
The latter medium was selected, since we used it for the cellular assays. […] Then we monitored the formation of (not detectable in the previous experiment) aggregated species in prodrug solutions that appeared transparent (concentrations < 50 µM) by using dynamic light scattering. […]
Solubility of drugs in aqueous buffers
Observing prodrug precipitation by using bright field optical microscopy […]
glutamine (1 %), and penicillin/streptomycin (1 %) was filled into 96-well microtiter plates (100 µL for each well) and compounds in DMSO stock solution (1 µL) were added. Each well was monitored by using bright field optical microscopy both immediately after […]

Data set [3] is described as follows: Prodrug-induced generation of ROS in cell free settings (DCFH/H2O2). To be noted: for ROS Release Efficacy: relative acceleration of the rate of DCFH fluorescence increase with H2O2, pH 7.4, FeSO4 = 1.0. From the text: As previously reported, the NAAF-prodrugs react with ROS like H2O2, first leading to the cleavage of the B-C-bond with the formation of the phenol derivatives (product 2c-1, Figure S49, SI). The latter compounds exist in equilibrium with the corresponding phenolates. The phenolates undergo the spontaneous 1,6-elimination of para-quinone methide (QM) followed by the release of CO2 with the formation of the N-alkylaminoferrocene NAAF drugs (product 2c-2, Figure S46, SI). By using electrospray ionization mass spectrometry (ESI–MS), we confirmed for one representative prodrug 2c that it reacts with H2O2 in cell free settings according to this common mechanism (ESI-MS, Figures S46–S48, SI). The NAAF is further oxidized by H2O2 or molecular oxygen with the generation of drug NAAF^+ and highly toxic HO• or/and O2^•−. Finally, the NAAF^+ is reduced by glutathione (GSH), thereby closing the catalytic cycle, in which the NAAF acts as a catalyst. We evaluated the formation of HO• or/and O2^•− by using 2′,7′-dichlorodihydrofluorescein (DCFH) as a probe (Table 1, Figure S49, SI). This probe is oxidized to the fluorescent product 2′,7′-dichlorofluorescein (DCF) in the presence of HO• or/and O2^•−. […] The lower activity of 2c and 2d correlates with their higher lipophilicity and their correspondingly higher propensity to form aggregates in aqueous solution (Figure S45, SI).
Prodrug-induced generation of ROS in cell free settings
2',7'-Dichlorodihydrofluorescein diacetate (DCFH-DA, 4.9 mg) was dissolved in DMF (100 μL) and mixed with aqueous NaOH (0.1 M, 900 μL). The resulting mixture was incubated for 30 min at 22 °C in the dark to obtain a stock solution of 2',7'-dichlorodihydrofluorescein (DCFH, 10 mM). Next, DCFH (1 µL ) was added to the solution containing MOPS buf fer (100 mM, pH 7.4), N,N,N'N' -e thylenediaminetetraacetic acid (EDTA , 10 mM) and glutathione (GSH , 5 mM) (1 mL, final concentration of DCFH 10 μM). The reaction mixture was heated to 37 °C and H2O2 (1 µL, final concentration 10 mM) was added. The reaction was monitored by fluorescence spectroscopy: λex = 501 nm, λem = 523 nm. After around 5 min, prodrugs (1 mM in DMF, 10 μL) or positive control FeSO4 (1 mM in water, 10 μL) were added, and the fluorescence monitoring was continued until the fluorescence signal growth was stalled after approximately 100 to 300 min. A representative kinetics of ROS […]
The data are presented in Table 1 as relative acceleration of the rate of the fluorescence increase, where the rate of the fluorescence increase obtained in the presence of positive control FeSO4 was set […]
y = a time + b (a = (dF/dt) , min-1)
Figure S49. Increase of the fluorescence intensity (λex = 501 nm, λem = 523 nm) upon oxidation of DCFH by H2O2 in the presence of FeSO4. Experimental details are provided in the description above. The time point of the FeSO4 addition is indicated with a black […]
(also on this page, place not known: ° C µL) buffer N,N,N'N'-ethylenediaminetetraacetic (EDTA, (GSH, ° C FeSO 4 (λ ex λ em Fluorescence (a.u.) (dF/dt)0, min -1 Addition of)
(1 picture or pasted object on this page, not shown here)

The subject of data set [4] is A2780 cells. The experiment in a line: Cell viability, MTT assay, A2780. It counts as cell-based, human. The method, then: Determination of viability of cells in the presence of prodrugs and controls A2780 and BL-2 cells The medium was removed, and the cells were washed two times with DPBS, trypsinated, and resuspended in RPMI 1640 medium (A2780) supplemented with 5% FBS (for 24 h and 48 h assay) or 10% FBS (for 96 h assay) , 1% L-glutamine, and 1% penicillin/streptomycin.
A2780 cells: This suspension was spread in the wells of a 96 -well microtiter plate (25000 cells for A2780 per well per 100 μL) and left standing at 37 °C in the chamber filled with CO2 (5%) for overnight. Stock solutions of prodrugs of different concentra tions (1 μL, solvent dmso, final concentrations in wells were 2, 5, 10, 30, 50 μM) were added to the wells and incubated for specific periods of time. Four experiments were conducted for each concentration of the prodrug. Finally, 3-(4,5-dimethylthiazol-2-yl)-2,5-diphenyltetrazolium bromide (MTT, 20 μL of the solution prepared by dissolving MTT (5 mg) in DPBS buffer (1 mL)) was added to each well, incubated for 3 h, treated with sodium dodecyl sulfate (SDS) solution (90 μL, 10% solution in 0.01 M aqueous HC l), and incubated overnight. Afterward, the intensity of the absorbance at 590 nm was measured.
MTT is converted in live cells to blue dye with the absorbance maximum λ max at 590 nm.
The absorbance at 690 nm was taken as a baseline value. The baseline corrected absorbance at 590 nm (A(590 nm) − A(690 nm)) was applied to calculate the relative number of viable cells. IC50 values were determined by fitting the experimental data expressing the number of viable cells (%, Y-axis) versus drug concentration (μM, X-axis) with a line curve and the X-axis value corresponding to 50% viability was considered as IC50 value according to the line curve (Figure S50, Table S2). […]
(Formazan colour is commonly taken as a measure of viable cells.)

Data set [5] relates to chronic lymphocytic leukemia (CLL) cells. Nature of the data set: Viability of primary CLL cells (CellTiter Glo). It counts as cell-based, human. To be noted: viability of CLL vs MNC, 48 h; for 2c at 3.3 and 10 µM. The text has this: Determination of viability of primary cancer (CLL) and normal (MNC) cells in the […]
Clinical samples from chronic lymphocytic leukemia (CLL) patients (N=6, CLL cells) and healthy donors (N=6; peripheral blood mononuclear cells, MNCs) were collected at the University Hospital Heidelberg, Germany. Informed consent was obtained in accordance with the Declaration of Helsinki. Sample collection and analysis was approved by the ethics committee of the University of Heidelberg (S-254/2016). Blood was separated by a Ficoll gradient (GE Healthcarey), and cells were cryopreserved. Drug sensitivity screening was performed in 384-well format (Greiner Bio One) with 10 different prodrug […]
4x10^4 cells per well. Cells were cultured in RPMI-1640 (Invitrogen) supplemented with penicillin/streptomycin (Invitrogen), L-glutamine (Invitrogen) and 10% pooled and heat inactivated AB-type human serum (Sigma-Aldrich). Cell viability was assessed by quantification of ATP (CellTiter Glo®, Promega) 48 hours after drug application.
Luminescence was measured on a Tecan Infinite F200 Microplate Reader. Viability was calculated as % of solvent (DMSO) treated control. Representative plots of cell viability
A general note: Cellular ATP, detected with luciferase, serves as a proxy for viable cell number.

Data set [6] relates to A2780 cells. The experiment in a line: Mitochondrial ROS (MitoSOX, flow cytometry), A2780. Type of data set: cell-based, human. Here is the method: Monitoring mitochondrial ROS (mROS)
A2780 cells were seeded in RPMI 1640 medium containing 5% FBS, 1% L-glutamine and 1% penicillin/streptomycin in a 96-well microtiter plate (total volume 0.1 mL) at a density of 250 cells/µL one day before the experiment. On the day of the experiment, the cells were washed with DPBS buffer and a fresh portion of RPMI 1640 medium containing 5% FBS, 1% L-glutamine and 1% penicillin/streptomycin (100 µL) was added followed by addition of compounds (1 μL of stock solutions in DMSO, final concentration of the prodrugs was 5, 10 μM and 30 μM) or carrier only (DMSO, 1 µL, final concentration 1 %, v/v) and incubation for 1 or 2 h in the dark chamber filled with CO 2 (5%) at 37 °C. After that, the cells were washed twice with DPBS buffer and the medium was replaced with HBSS (Hanks' Balanced Salt solution, 50 μL) containing MitoSOX (Red Mitochondrial Superoxide Indicator, Thermo-Fisher, Catalog number M36008, final concentration 5 µM obtained by adding 0.5 µ L of the 0.5 mM stock solution of MitoSOX in DMSO to the HBSS ) […]
(1 picture or pasted object on this page, not shown here) […]
and the cells were incubated in the dark chamber filled with CO2 (5%) at 37 °C for 20 min.
Next, the cells were detached from the culture dish using trypsin/EDTA (0.025%/0.01%, v/v, 50 µL). The cells were re-suspended in RPMI 1640 medium containing 5% FBS, 1% L-glutamine and 1% penicillin/streptomycin (100 µL). Finally, the fluorescence of live cells (λex = 488 nm, λem = 578 nm) in the suspensions was determined by using flow cytometry
Background: Flow cytometry measures light scatter and fluorescence of single cells or particles in a stream.

`CC1(C)OB(c2ccc(COC(=O)N(Cc3cn(CCc4ccccc4)nn3)[c-]3cccc3)cc2)OC1(C)C.[Fe+2].c1cc[cH-]c1` [2b]: in data set [1], the “logP (Hydrolyzed Prodrug)” value is 3.10 ± 0.12 and the “logP (Prodrug)” value was 5.37 ± 0.10. Moreover, in data set [2], the Solubility came to 100 µM and the “first signs of precipitation” value is reported as 50 µM. The “ROS Release Efficacy” value in data set [3] is listed as 0.76 ± 0.19. Moreover, half-maximal inhibition in the data set on A2780 cells [4] (A2780, 24 h incubation) (IC50) was put at 24.7 ± 0.6 µM. The IC50 in the data set on A2780 cells [4] (A2780, 48 h incubation) came to 18.5 ± 1.3 µM. Besides, half-maximal inhibition in the data set on A2780 cells [4] (A2780, 96 h incubation) (IC50) required 12 ± 3 µM. The “cancer cell specificity, primary CLL cells vs MNCs” value in data set [5] is given as “some specificity towards primary CLL cells”.
In the case of `CC1(C)OB(c2ccc(COC(=O)N(Cc3cn(Cc4ccc(Cn5cc(CCc6ccccc6)nn5)cc4)nn3)[c-]3cccc3)cc2)OC1(C)C.[Fe+2].c1cc[cH-]c1` [2d], in data set [1], the “logP (Hydrolyzed Prodrug)” value is listed as 3.42 ± 0.14. Also, the “logP (Prodrug)” value in data set [1] is 5.56 ± 0.14. The Solubility in data set [2] stood at 30 µM. For the same compound, in data set [2], the “first signs of precipitation” value stood at 30 µM. Also, the “ROS-generating activity, fold lower than that of 2a and 2b” value in data set [3] (cell free DCFH assay) is recorded as ~ 2 fold. The “ROS Release Efficacy” value in data set [3] is listed as 0.37 ± 0.13. The “cell viability at which the effect is saturated” value was 70% in the data set with A2780 cells [4] (A2780, 24 h); 50% in the data set with A2780 cells [4] (A2780, 48 h); 43% in the data set on A2780 cells [4] (A2780, 96 h). For the same compound, the IC50 in the data set with A2780 cells [4] (A2780, 24 h incubation) is greater than 30 µM; with A2780 cells [4] (A2780, 48 h incubation), greater than 30 µM; in the data set on A2780 cells [4] (A2780, 96 h incubation), 8.3 ± 1.5 µM. For the same compound, the “cancer cell specificity, primary CLL cells vs MNCs” value in data set [5] is “some specificity towards primary CLL cells”.
Regarding `CC1(C)OB(c2ccc(COC(=O)N[c-]3cccc3)cc2)OC1(C)C.[Fe+2].c1cc[cH-]c1` [5a], the “mitochondrial ROS (mROS) vs non-treated cells” value in the data set with A2780 cells [6] was “substantially weaker”.

As usually defined, the Solubility is how much of the substance goes into solution per volume. A high value points to much dissolved substance. One may read the IC50 as the concentration that inhibits the measured activity by half. For orientation: cell viability means a read-out of living cells in per cent, often relative to untreated cells. A lower cell viability goes with more harm to the cells.
